# Measurements taken from patent US20040092532A1, “Use of p38 inhibitors for the treatment of smoke inhalation” (priority 2003, published 2004).
# Tests used:
# [1] = test system: citric acid-induced cough; assay: Citric Acid Induced Cough Model (direct antitussive activity); type: in vivo; conditions: inhaled citric acid-induced cough, conscious guinea pigs; FIG. 4
# Experimental: The directed antitussive activity of the compound in question if first assessed, by a 10 to 30 minute pretreatment period by intraperitoneal injection or a 1 hour pretreatment period for oral administration. The animals (guinea pigs) are then subjected to an inhaled citric acid-induced cough challenge. Inhalation of citric acid (CA; 0.4% for 1 minute) induced 11 to 15 coughs, during the exposure and 12-minute monitoring period in conscious guinea pigs.
# [2] = test system: antigen-induced hypertussive response to citric acid; assay: Antigen-Induced Hypertussive Model (ovalbumin, citric acid challenge); type: in vivo; conditions: sensitized guinea pigs exposed to inhaled ovalbumin
# Experimental: The effects of the compound are then assessed on the hypertussive response that occurs 72 hours post aerosol exposure to antigen or LTD4 exposure. Treatment of the animals occurs with the drug prior and/or after antigen or LTD4 challenge, but not on the day of citric acid challenge. Inhalation of citric acid (CA; 0.4% for 1 minute) induced 11 to 15 coughs, during the exposure and 12-minute monitoring period in conscious guinea pigs.
# [3] = test system: LTD4-induced hypertussive response and airway eosinophilia; assay: LTD4-Induced Hypertussive Model (citric acid challenge); type: in vivo, guinea pigs; conditions: oral 30 mg/kg b.i.d., inhaled LTD4 10 ug/ml for 1 minute, 72 hours after exposure
# Experimental: The effects of the compound are then assessed on the hypertussive response that occurs 72 hours post aerosol exposure to antigen or LTD4 exposure. Treatment of the animals occurs with the drug prior and/or after antigen or LTD4 challenge, but not on the day of citric acid challenge. […] Similarly, inhalation of LTD4 (10 ug/ml for 1 minute) increased cough incidence and airway esoinophiles 72 hours after exposure.
smiles,measurement,setting,value
"COc1nccc(-c2c(-c3ccc(F)cc3)ncn2[C@H]2CC[C@H](O)CC2)n1 [Compound I, trans-1-(4-Hydroxycyclohexyl)-4-(4-fluorophenyl)-5-[(2methoxy)pyrimidin-4-yl]imidazole]",direct antitussive effect,[1],no direct antitussive effect
same,airway eosinophilia,[2]; bronchoalveolar lavage,reduce airway eosinophilia
same,hypertussive state (CA-induced cough incidence),[2]; citric acid challenge,normalizes the hypertussive state
same,LTD4-induced eosinophilia,[3],blocked the LTD4-induced esoinophilia
same,cough response after LTD4,[3]; FIG. 5,normalized the cough response
